Results from PMC12122562, “Phase 1 studies of the indenoisoquinolines LMP776 and LMP744 in patients with solid tumors and lymphomas” (Cancer Chemotherapy and Pharmacology, 2025).

Columns and labels:
TOP1cc = target: T1, TOP1cc (Homo sapiens, UniProt P11387); assay: qIF of paired tumor biopsies: TOP1cc foci; assay type: in vivo; settings: for TOP1cc: C1D2
T1 construct: paired pre-treatment and on-treatment tumor biopsies (C1D2, 2–4 h after dosing) from 6 patients receiving LMP744 at the MTD; from tissue; host or cells: core needle tumor biopsies from patients (LMP744 expansion cohort)
T1 sequence (P11387 2-765 limits assumed): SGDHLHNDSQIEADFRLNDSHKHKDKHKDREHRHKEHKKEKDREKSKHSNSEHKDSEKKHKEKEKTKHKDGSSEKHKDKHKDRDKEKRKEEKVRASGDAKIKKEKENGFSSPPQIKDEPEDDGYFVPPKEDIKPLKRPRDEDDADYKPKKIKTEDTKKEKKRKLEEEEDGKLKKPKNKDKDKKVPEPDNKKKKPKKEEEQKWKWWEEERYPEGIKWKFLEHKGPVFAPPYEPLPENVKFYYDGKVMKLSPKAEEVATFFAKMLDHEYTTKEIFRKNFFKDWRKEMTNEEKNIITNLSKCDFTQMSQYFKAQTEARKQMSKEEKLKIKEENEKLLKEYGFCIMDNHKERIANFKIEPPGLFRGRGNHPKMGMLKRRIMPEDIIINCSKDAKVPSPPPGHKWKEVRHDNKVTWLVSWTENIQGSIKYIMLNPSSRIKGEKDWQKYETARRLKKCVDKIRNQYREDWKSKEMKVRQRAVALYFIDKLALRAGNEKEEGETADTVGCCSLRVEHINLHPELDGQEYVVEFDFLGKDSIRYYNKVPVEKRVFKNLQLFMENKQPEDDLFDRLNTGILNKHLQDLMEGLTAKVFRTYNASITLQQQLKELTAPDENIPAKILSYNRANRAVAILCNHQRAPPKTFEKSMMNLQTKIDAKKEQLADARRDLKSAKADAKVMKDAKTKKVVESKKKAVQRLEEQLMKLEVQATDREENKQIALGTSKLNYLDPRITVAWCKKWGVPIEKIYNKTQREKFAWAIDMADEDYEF
Excerpt: The LMP744 protocol collected pre-treatment (baseline) and on-treatment paired biopsies from patients in the expansion cohort. Core needle tumor biopsies (18-gauge) were collected and flash-frozen at point of collection per NCI SOPs (https://dctd.cancer.gov/ResearchResources/biomarkers/docs/par/SOP340507_Biopsy_Frozen.pdf) as described to preserve labile post-translational modifications such as phosphorylation. Biopsy pairs were thawed in formalin, fixed in paraffin embedded together with control tissues following NCI SOP340550 (https://dctd.cancer.gov/ResearchResources/biomarkers/DDR3/SOP340550_Biopsy_Section_Testis_Jejunum_Controls.pdf). TOP1 and TOP1cc were measured with a cocktail containing custom-conjugated rabbit monoclonal antibody anti-TOP1-DIG (Abcam, EPR5376 (2)) and mouse monoclonal antibody anti-TOP1cc (clone 1.1A [34, 35], EMD Millipore) that were detected with reporter secondary antibodies AlexaFluor-647 IgG fraction monoclonal mouse anti-digoxin (Jackson ImmunoResearch) and goat/anti-mouse AlexaFluor-488, respectively. Phosphorylated KAP1 (pKAP1, phosphorylated at S824) was measured using custom-conjugated pKAP1-pS824-DNP (Abcam, EPR5248) and detected with AlexaFluor-488 conjugated with anti-dinitrophenyl-KLH rabbit IgG Antibody Fraction (DNP-488, ThermoFisher). […] TOP1, γH2AX, pNBS1, and pKAP1 were measured as the percentage of DAPI-stained tumor cell nuclear area that was positive for the biomarker (% NAP); RAD51 [19] and TOP1cc was measured as a function of the percentage of nuclei with ≥ 5 foci (RAD51) or ≥ 19 foci (TOP1cc). Apoptosis was measured using a validated IFA of tumor cells positive for both cCasp3 blebbing in the cytoplasm and γH2AX in the nucleus. Anti-SLFN11 rabbit monoclonal antibody (Cell Signaling Technology, clone D8W1B) was detected by immunohistochemistry (IHC) using Bond Polymer Detection kit (Leica) and scanned in 20X widefield Aperio (Leica), and the distribution of staining intensity of tumor cell nuclei graded as 0, 1 + , 2 + or 3 + was converted into an H-score. […]

RAD51 = assay: qIF of paired tumor biopsies: nuclear RAD51 foci; assay type: in vivo, human
Excerpt: (§1) The LMP744 protocol collected pre-treatment (baseline) and on-treatment paired biopsies from patients in the expansion cohort. Core needle tumor biopsies (18-gauge) were collected and flash-frozen at point of collection per NCI SOPs (https://dctd.cancer.gov/ResearchResources/biomarkers/docs/par/SOP340507_Biopsy_Frozen.pdf) as described to preserve labile post-translational modifications such as phosphorylation. Biopsy pairs were thawed in formalin, fixed in paraffin embedded together with control tissues following NCI SOP340550 (https://dctd.cancer.gov/ResearchResources/biomarkers/DDR3/SOP340550_Biopsy_Section_Testis_Jejunum_Controls.pdf). TOP1 and TOP1cc were measured with a cocktail containing custom-conjugated rabbit monoclonal antibody anti-TOP1-DIG (Abcam, EPR5376 (2)) and mouse monoclonal antibody anti-TOP1cc (clone 1.1A [34, 35], EMD Millipore) that were detected with reporter secondary antibodies AlexaFluor-647 IgG fraction monoclonal mouse anti-digoxin (Jackson ImmunoResearch) and goat/anti-mouse AlexaFluor-488, respectively. Phosphorylated KAP1 (pKAP1, phosphorylated at S824) was measured using custom-conjugated pKAP1-pS824-DNP (Abcam, EPR5248) and detected with AlexaFluor-488 conjugated with anti-dinitrophenyl-KLH rabbit IgG Antibody Fraction (DNP-488, ThermoFisher). […]

cCasp3 = assay: IFA of paired tumor biopsies: cCasp3 co-localized with γH2AX (apoptosis); assay type: in vivo, human; settings: patient 29, MTD, C1D2
Excerpt: as §1

Compound: COc1cc2c3c(n(CCCNCCO)c(=O)c2cc1OC)-c1cc2c(cc1C3=O)OCO2 [LMP744]
- TOP1cc, change in the biopsy cohort (TOP1cc; 6 patients at MTD, P = 0.1373): no significant changes
- TOP1cc (TOP1cc; patient 29, MTD): neither biomarker changed with treatment
- TOP1cc (TOP1cc; patient 31, MTD): decreased nearly to background levels
- Patients with significant drug-induced increases in nuclear RAD51 (RAD51; MTD, C1D2, p = 0.0091 for group effect): 4 of 6
- Nuclear RAD51 response (RAD51; patient 29, MTD, C1D2): at least 5 % of cells with ≥ 5 foci
- Co-localized cytoplasmic cCASP3 (cCasp3): increase in co-localized cytoplasmic cCASP3
